Measurements: patent US11840686B2, “Modulation of prekallikrein (PKK) expression” (Ionis Pharmaceuticals, Inc., priority 2013, dated 2023)
Strand notation (5' to 3'): a small letter for the sugar, then the base; units joined by * are phosphorothioate-linked, units joined directly phosphodiester-linked; [ ] holds rarer units or linkages, { } end groups; capitals alone tell only the bases. e = 2'-O-(2-methoxyethyl) (MOE); k = constrained ethyl (cEt); [5mC] = 5-methylcytosine; d = 2'-deoxy (DNA)

Test system: human PKK mRNA
Experiment: Antisense inhibition of human PKK mRNA in HepaRG cells, 1,000 nM, MOE/deoxy/cEt oligonucleotides (Example 3)
Format: cell-based
Details: Table 27; HepaRG cells, 1,000 nM antisense oligonucleotide; human PKK mRNA
How it was run: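 HepaRG cells at 20,000 per well electroporated with 1,000 nM 16-mer MOE/cEt/deoxy gapmers (phosphorothioate, 5-methylcytosine). After about 24 h, PKK mRNA measured by qRT-PCR with primer probe set RTS3454, normalized to RIBOGREEN total RNA. Reported as percent inhibition versus untreated cells.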

| Substance | % inhibition [%] |
| --- | --- |
| 548320 (eG*e[5mC]*kA*d[5mC]*dA*d[5mC]*dA*dG*dA*d[5mC]*dT*dT*dG*k[5mC]*k[5mC]*e[5mC]; antisense) [compound 548320] | 0 |
| 548321 (e[5mC]*eT*kG*d[5mC]*dA*dT*d[5mC]*dT*dG*dG*dA*d[5mC]*dT*kA*kT*eG; antisense) [compound 548321] | 38 |
| 548322 (eA*eG*kG*dG*dA*dA*dA*dT*dT*dA*dG*dA*dG*kG*k[5mC]*eA; antisense) [compound 548322] | 38 |
| 548323 (e[5mC]*eT*kG*dT*dT*dG*d[5mC]*d[5mC]*dT*dG*dA*d[5mC]*dA*kT*kG*e[5mC]; antisense) [compound 548323] | 43 |
| 548324 (eA*e[5mC]*kA*dT*dA*dA*dA*dT*dT*d[5mC]*d[5mC]*d[5mC]*d[5mC]*kA*k[5mC]*eA; antisense) [compound 548324] | 29 |
| 548325 (e[5mC]*e[5mC]*k[5mC]*dA*d[5mC]*dT*dG*dA*d[5mC]*dT*dG*dA*d[5mC]*kT*kA*e[5mC]; antisense) [compound 548325] | 27 |
| 548326 (eT*e[5mC]*k[5mC]*dT*dG*dT*dG*dA*d[5mC]*dA*dG*dA*dA*k[5mC]*k[5mC]*eA; antisense) [compound 548326] | 27 |
| 548327 (e[5mC]*eT*kA*d[5mC]*dA*d[5mC]*d[5mC]*dT*dT*dT*d[5mC]*dT*dG*k[5mC]*kA*e[5mC]; antisense) [compound 548327] | 6 |
| 548328 (antisense eG*eG*kT*d[5mC]*d[5mC]*dT*dT*dG*dA*dA*d[5mC]*d[5mC]*d[5mC]*k[5mC]*kG*eT) [compound 548328] | 68 |
| 548329 (antisense eA*eG*k[5mC]*dA*dG*dA*dT*d[5mC]*dT*dG*dG*dG*dT*kT*kG*eT) [compound 548329] | 59 |
| 548330 (antisense eG*eA*k[5mC]*dT*dA*dG*d[5mC]*dT*dT*d[5mC]*dT*dA*d[5mC]*kT*kA*e[5mC]) [compound 548330] | 34 |
| 548331 (antisense eA*e[5mC]*kA*dA*dT*d[5mC]*d[5mC]*d[5mC]*dT*dT*dA*dG*d[5mC]*k[5mC]*k[5mC]*eA) [compound 548331] | 73 |
| 548332 (antisense eG*eA*kT*dG*dA*dA*dA*dT*dG*dT*dG*d[5mC]*dA*k[5mC]*k[5mC]*eT) [compound 548332] | 46 |
| 548333 (antisense eG*eA*k[5mC]*dT*dG*dT*dG*d[5mC]*dT*dA*dT*d[5mC]*d[5mC]*kG*k[5mC]*eT) [compound 548333] | 58 |
| 548334 (antisense eG*e[5mC]*kT*d[5mC]*dA*d[5mC]*dT*dA*dT*dA*dG*dG*d[5mC]*k[5mC]*k[5mC]*e[5mC]) [compound 548334] | 69 |
| 548335 (antisense eT*eA*kG*d[5mC]*dA*dT*d[5mC]*dA*dT*dG*d[5mC]*d[5mC]*dA*k[5mC]*kA*eG) [compound 548335] | 51 |
| 548336 (antisense eG*e[5mC]*kA*d[5mC]*dA*dT*dT*dA*dG*dG*dA*dG*dG*kT*kA*eG) [compound 548336] | 1 |
| 548337 (antisense eT*eA*k[5mC]*d[5mC]*dG*d[5mC]*dT*dG*dG*dG*dT*dG*d[5mC]*kG*kG*eT) [compound 548337] | 10 |
| 548339 (antisense eA*e[5mC]*kA*dT*dG*dT*dG*dG*dG*dA*dT*d[5mC]*dA*kG*kA*eG) [compound 548339] | 37 |
| 548340 (antisense eG*eA*kT*dG*dA*dT*d[5mC]*d[5mC]*dT*d[5mC]*dA*d[5mC]*dA*kT*kA*e[5mC]) [compound 548340] | 35 |
| 548341 (antisense eT*eA*kG*dA*dA*d[5mC]*d[5mC]*dT*dT*d[5mC]*d[5mC]*dT*d[5mC]*k[5mC]*kA*e[5mC]) [compound 548341] | 30 |
| 548342 (antisense eG*eG*kA*dA*dG*dA*d[5mC]*dT*dT*d[5mC]*d[5mC]*d[5mC]*dT*k[5mC]*kT*eG) [compound 548342] | 0 |
| 548344 (antisense eG*eG*k[5mC]*dA*dA*d[5mC]*dT*dA*dT*dG*dT*dT*d[5mC]*kT*k[5mC]*eA) [compound 548344] | 76 |
| 548345 (antisense e[5mC]*eT*kA*dA*d[5mC]*dT*d[5mC]*d[5mC]*dA*dT*d[5mC]*dA*d[5mC]*kT*kG*e[5mC]) [compound 548345] | 55 |
| 548346 (antisense eT*e[5mC]*k[5mC]*d[5mC]*d[5mC]*dA*dA*dT*dA*d[5mC]*dT*dT*dG*k[5mC]*kT*eG) [compound 548346] | 35 |
| 548347 (antisense eG*e[5mC]*kT*dG*dT*dT*d[5mC]*dT*dA*dA*dG*d[5mC]*dG*kA*kG*eA) [compound 548347] | 31 |
| 548349 (antisense eT*e[5mC]*k[5mC]*dA*dG*dA*dA*dT*dA*d[5mC]*dT*dG*d[5mC]*k[5mC]*k[5mC]*e[5mC]) [compound 548349] | 61 |

| Substance | % inhibition [%] |
| --- | --- |
| 548350 (antisense eG*e[5mC]*kG*d[5mC]*dT*dA*dA*d[5mC]*d[5mC]*dT*d[5mC]*dA*dT*kA*kA*eA) [compound 548350] | 29 |
| 548351 (antisense e[5mC]*eT*kG*dG*dA*dA*dA*d[5mC]*dG*dA*dG*dA*d[5mC]*kA*k[5mC]*eA) [compound 548351] | 33 |
| 548352 (antisense eG*eA*kG*dA*dG*dA*dG*dA*dT*dG*dT*dT*d[5mC]*k[5mC]*k[5mC]*eT) [compound 548352] | 47 |
| 548353 (antisense e[5mC]*eT*kG*d[5mC]*dT*dG*dG*dT*dT*dG*dA*dG*dA*kA*kT*e[5mC]) [compound 548353] | 48 |
| 548354 (antisense eA*eT*kG*dT*d[5mC]*d[5mC]*d[5mC]*d[5mC]*dA*dG*dT*dG*dG*kA*kA*eG) [compound 548354] | 41 |
| 548355 (antisense eG*e[5mC]*kA*dT*d[5mC]*d[5mC]*dT*d[5mC]*d[5mC]*d[5mC]*dT*dA*dG*kT*kT*eG) [compound 548355] | 47 |
| 548356 (antisense eT*eG*kT*dT*dG*dG*dT*d[5mC]*dA*dG*d[5mC]*dA*dT*kT*k[5mC]*eA) [compound 548356] | 63 |
| 548357 (antisense eG*eA*k[5mC]*dG*dA*d[5mC]*dT*dG*d[5mC]*d[5mC]*d[5mC]*dT*dG*kT*kG*e[5mC]) [compound 548357] | 69 |
| 548358 (antisense eA*eT*kT*dT*dG*dG*dG*d[5mC]*d[5mC]*dT*dA*dG*dT*kG*kG*eT) [compound 548358] | 0 |
| 548359 (antisense e[5mC]*e[5mC]*kT*dA*dG*dT*d[5mC]*d[5mC]*dT*d[5mC]*dA*dA*dG*kT*kT*eT) [compound 548359] | 0 |
| 548360 (antisense e[5mC]*eA*kA*dG*dA*d[5mC]*dA*dT*d[5mC]*dA*dG*dT*dA*kG*k[5mC]*eT) [compound 548360] | 45 |
| 548361 (antisense e[5mC]*eT*kT*dA*dT*d[5mC]*dA*dG*dT*d[5mC]*d[5mC]*d[5mC]*dA*kG*kT*e[5mC]) [compound 548361] | 52 |
| 548362 (antisense eG*eA*k[5mC]*dA*dA*d[5mC]*d[5mC]*d[5mC]*dA*dT*d[5mC]*dA*dG*kT*kT*eG) [compound 548362] | 33 |
| 548363 (antisense e[5mC]*eA*kG*d[5mC]*dA*dG*dG*d[5mC]*dT*d[5mC]*dA*dA*dA*kG*kT*eG) [compound 548363] | 37 |
| 548364 (antisense eT*eG*kG*d[5mC]*dT*dA*dA*dG*dT*d[5mC]*dA*dG*dG*k[5mC]*k[5mC]*e[5mC]) [compound 548364] | 30 |
| 548365 (antisense eT*eG*kT*dA*d[5mC]*dT*d[5mC]*d[5mC]*dA*d[5mC]*d[5mC]*dT*d[5mC]*kA*k[5mC]*eG) [compound 548365] | 55 |
| 548366 (antisense eA*eG*k[5mC]*dA*dA*dG*d[5mC]*dT*dA*dA*dG*dT*dG*kA*kG*eT) [compound 548366] | 5 |
| 548367 (antisense eG*eT*kT*d[5mC]*dT*dT*dG*dA*dG*dT*dG*dT*dA*kG*kA*eG) [compound 548367] | 52 |
| 548368 (eG*eT*kG*dT*dT*d[5mC]*dA*dT*dA*d[5mC]*dG*dG*dA*kA*kG*e[5mC]; antisense) [compound 548368] | 59 |
| 548369 (eG*eT*kT*dG*dG*dG*dA*dT*dG*d[5mC]*dG*dA*d[5mC]*kT*k[5mC]*eT; antisense) [compound 548369] | 50 |
| 548370 (eA*e[5mC]*kG*dA*dA*dG*dT*d[5mC]*dT*d[5mC]*dT*dT*dT*k[5mC]*k[5mC]*eT; antisense) [compound 548370] | 53 |
| 548371 (e[5mC]*eG*kA*dT*dG*dA*dG*dT*dT*dG*dG*dG*d[5mC]*kA*kG*eG; antisense) [compound 548371] | 57 |
| 548372 (eG*eA*kT*dA*d[5mC]*d[5mC]*dT*dT*dT*d[5mC]*d[5mC]*dA*d[5mC]*kT*k[5mC]*e[5mC]; antisense) [compound 548372] | 61 |
| 548373 (eT*e[5mC]*k[5mC]*d[5mC]*d[5mC]*dA*dA*dG*dA*dT*dT*dA*dT*kG*kT*eG; antisense) [compound 548373] | 16 |
| 548374 (eG*e[5mC]*kA*d[5mC]*d[5mC]*d[5mC]*dT*dT*dT*dT*d[5mC]*dA*dT*kT*kG*eA; antisense) [compound 548374] | 41 |
| 548375 (eT*e[5mC]*kG*dA*d[5mC]*dT*dT*d[5mC]*dT*d[5mC]*d[5mC]*dT*dG*kT*k[5mC]*eT; antisense) [compound 548375] | 27 |
| 548376 (eG*e[5mC]*k[5mC]*dT*dT*dT*dG*dA*d[5mC]*d[5mC]*dT*dT*dT*k[5mC]*kG*e[5mC]; antisense) [compound 548376] | 65 |
